ChEMBL document CHEMBL1201862, “PubChem BioAssay data set” (2004)
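Five concentrations, 48 hours, 96-well plates. GI50: concentration for 50% inhibition of growth.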 Active and inactive are the calls of the source. Cut-off read from the data, not from the text of the source: active = GI50 up to about 1.1 µM and inactive = higher.

Tests used:
Test in all cases: NCI tumour cell line growth inhibition, 48 h
UACC-62 = system: UACC-62
CAKI-1 = system: CAKI-1
DMS-114 = system: DMS-114
OVCAR-4 = system: OVCAR-4
M19-MEL = system: M19-MEL
TK-10 = system: TK-10
SF-268 = system: SF-268
DLD-1 = system: DLD-1
DMS-273 = system: DMS-273
SF-539 = system: SF-539
RXF 631 = system: RXF 631
EKVX = system: EKVX
COLO 205 = system: COLO 205
U-251 = system: U-251
SNB-78 = system: SNB-78
SNB-75 = system: SNB-75
786-0 = system: 786-0
CCRF-CEM = system: CCRF-CEM
UO-31 = system: UO-31
HT-29 = system: HT-29
Malme-3M = system: Malme-3M
SNB-19 = system: SNB-19
ACHN = system: ACHN
HCT-116 = system: HCT-116
HOP-18 = system: HOP-18
SW-620 = system: SW-620
KM12 = system: KM12
NCI-H23 = system: NCI-H23
HCT-15 = system: HCT-15
SR = system: SR
SK-MEL-5 = system: SK-MEL-5
SK-MEL-28 = system: SK-MEL-28
OVCAR-3 = system: OVCAR-3
HCC 2998 = system: HCC 2998
SF-295 = system: SF-295
OVCAR-5 = system: OVCAR-5
XF498 = system: XF498
HOP-62 = system: HOP-62
LXFL 529 = system: LXFL 529
RPMI-8226 = system: RPMI-8226
SK-OV-3 = system: SK-OV-3
KM-20L2 = system: KM-20L2
IGROV-1 = system: IGROV-1
A498 = system: A498
HL-60 = system: HL-60
A549 = system: A549
K562 = system: K562
MOLT-4 = system: MOLT-4
UACC-257 = system: UACC-257
RXF 393 = system: RXF 393
LOX IMVI = system: LOX IMVI
NCI-H226 = system: NCI-H226
NCI-H460 = system: NCI-H460
HOP-92 = system: HOP-92
SN12C = system: SN12C
OVCAR-8 = system: OVCAR-8
M14 = system: M14

With `CC1OC(OCC2COC(O)(Oc3c(-c4ccc(O)c(O)c4)oc4cc(O)cc(O)c4c3=O)C(O)C2O)C(O)C(O)C1O` (configuration not stated) as the compound, how does the GI50 (UACC-62) read?
The GI50 was > 100 µM (inactive).

And the GI50 (CAKI-1)?
Its GI50 is > 100 µM (inactive).

And the GI50 (DMS-114)?
The GI50 was > 100 µM (inactive).

And the GI50 (OVCAR-4)?
Its GI50 is > 100 µM (inactive).

And the GI50 (M19-MEL)?
Its GI50 is > 100 µM (inactive).

And the GI50 (TK-10)?
The GI50 was > 100 µM (inactive).

And the GI50 (SF-268)?
Its GI50 is > 100 µM (inactive).

And the GI50 (DLD-1)?
Its GI50 is > 100 µM (inactive).

What about the GI50 (DMS-273) of the same compound?
The GI50 was > 100 µM (inactive).

What about the GI50 (SF-539) of the same compound?
Its GI50 is > 100 µM (inactive).

What about the GI50 (RXF 631) of the same compound?
Its GI50 is > 100 µM (inactive).

And the GI50 (EKVX)?
The GI50 was > 100 µM (inactive).

What about the GI50 (COLO 205) of the same compound?
The GI50 was > 100 µM (inactive).

What about the GI50 (U-251) of the same compound?
Its GI50 is > 100 µM (inactive).

What about the GI50 (SNB-78) of the same compound?
Its GI50 is > 100 µM (inactive).

And the GI50 (SNB-75)?
Its GI50 is > 100 µM (inactive).

And the GI50 (786-0)?
The GI50 was > 100 µM (inactive).

And the GI50 (CCRF-CEM)?
The GI50 was > 100 µM (inactive).

And the GI50 (UO-31)?
Its GI50 is > 100 µM (inactive).

And the GI50 (HT-29)?
Its GI50 is > 100 µM (inactive).

What about the GI50 (Malme-3M) of the same compound?
The GI50 was > 100 µM (inactive).

What about the GI50 (SNB-19) of the same compound?
Its GI50 is > 100 µM (inactive).

And the GI50 (ACHN)?
Its GI50 is > 100 µM (inactive).

What about the GI50 (HCT-116) of the same compound?
Its GI50 is > 100 µM (inactive).

And the GI50 (HOP-18)?
Its GI50 is > 100 µM (inactive).

And the GI50 (SW-620)?
Its GI50 is > 100 µM (inactive).

And the GI50 (KM12)?
The GI50 was > 100 µM (inactive).

And the GI50 (NCI-H23)?
Its GI50 is > 100 µM (inactive).

What about the GI50 (HCT-15) of the same compound?
Its GI50 is greater than 100 µM.

And the GI50 (SR)?
Its GI50 is > 100 µM (inactive).

And the GI50 (SK-MEL-5)?
The GI50 was > 100 µM (inactive).

And the GI50 (SK-MEL-28)?
The GI50 was > 100 µM (inactive).

What about the GI50 (OVCAR-3) of the same compound?
The GI50 was > 100 µM (inactive).

And the GI50 (HCC 2998)?
Its GI50 is > 100 µM (inactive).

And the GI50 (SF-295)?
The GI50 was > 100 µM (inactive).

What about the GI50 (OVCAR-5) of the same compound?
Its GI50 is > 100 µM (inactive).

What about the GI50 (XF498) of the same compound?
Its GI50 is > 100 µM (inactive).

And the GI50 (HOP-62)?
The GI50 was > 100 µM (inactive).

What about the GI50 (LXFL 529) of the same compound?
Its GI50 is > 100 µM (inactive).

What about the GI50 (RPMI-8226) of the same compound?
Its GI50 is > 100 µM (inactive).

What about the GI50 (SK-OV-3) of the same compound?
The GI50 was > 100 µM (inactive).

What about the GI50 (KM-20L2) of the same compound?
Its GI50 is > 100 µM (inactive).

And the GI50 (IGROV-1)?
The GI50 was > 100 µM (inactive).

What about the GI50 (A498) of the same compound?
The GI50 was > 100 µM (inactive).

And the GI50 (HL-60)?
Its GI50 is > 100 µM (inactive).

And the GI50 (A549)?
Its GI50 is > 100 µM (inactive).

What about the GI50 (K562) of the same compound?
The GI50 was > 100 µM (inactive).

What about the GI50 (MOLT-4) of the same compound?
Its GI50 is > 100 µM (inactive).

What about the GI50 (UACC-257) of the same compound?
Its GI50 is > 100 µM (inactive).

What about the GI50 (RXF 393) of the same compound?
The GI50 was > 100 µM (inactive).

And the GI50 (LOX IMVI)?
Its GI50 is > 100 µM (inactive).

What about the GI50 (NCI-H226) of the same compound?
Its GI50 is > 100 µM (inactive).

And the GI50 (NCI-H460)?
The GI50 was > 100 µM (inactive).

And the GI50 (HOP-92)?
Its GI50 is > 100 µM (inactive).

And the GI50 (SN12C)?
Its GI50 is > 100 µM (inactive).

What about the GI50 (OVCAR-8) of the same compound?
Its GI50 is > 100 µM (inactive).

And the GI50 (M14)?
The GI50 was > 100 µM (inactive).
